Earlier results as cited in US12290525B2, “5 alpha dihydrotestosterone formulations and associated methods of use and treatment” (priority 2022, dated 2025).

Experiments:
[1] = biological target: estrogen receptor (ER) subtype ERβ (Homo sapiens, UniProt Q92731)
Sequence of estrogen receptor (ER) subtype ERβ (Q92731 whole entry): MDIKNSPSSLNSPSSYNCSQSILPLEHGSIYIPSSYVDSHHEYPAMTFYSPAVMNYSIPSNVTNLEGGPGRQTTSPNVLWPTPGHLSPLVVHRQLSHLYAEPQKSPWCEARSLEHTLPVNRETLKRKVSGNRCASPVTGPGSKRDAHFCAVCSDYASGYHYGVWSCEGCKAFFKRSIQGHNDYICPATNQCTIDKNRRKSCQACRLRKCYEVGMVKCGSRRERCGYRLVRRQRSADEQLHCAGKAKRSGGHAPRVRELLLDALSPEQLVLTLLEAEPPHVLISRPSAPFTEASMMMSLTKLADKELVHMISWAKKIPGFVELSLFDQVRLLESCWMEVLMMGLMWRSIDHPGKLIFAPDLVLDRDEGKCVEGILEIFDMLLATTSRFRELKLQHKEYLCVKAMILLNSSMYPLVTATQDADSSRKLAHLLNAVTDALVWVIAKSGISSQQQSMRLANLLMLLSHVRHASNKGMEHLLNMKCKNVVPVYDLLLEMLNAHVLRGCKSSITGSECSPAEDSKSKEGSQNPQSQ

Row | Compound | activity at ERβ [1] | activity at the GABAA receptor (GABAA receptor)
1 | C[C@]12CC[C@H](O)C[C@@H]1CC[C@@H]1[C@@H]2CC[C@]2(C)[C@@H](O)CC[C@@H]12 [3β-androstanediol] | potent and selective agonist | –
2 | C[C@]12CC[C@@H](O)C[C@@H]1CC[C@@H]1[C@@H]2CC[C@]2(C)[C@@H](O)CC[C@@H]12 [3α-Androstanediol, 3α-androstanediol] | – | potent positive allosteric modulator
